# Source: publication PMC8500670, “A selective WDR5 degrader inhibits acute myeloid leukemia in patient-derived mouse models” (Science translational medicine, 2021)
# Like-named read-outs stand apart in the source and are kept apart here.
# Key:
# Test in all cases: biochemical
# SET1b Complex = SET1b Complex (Homo sapiens, UniProt Q9UPS6); design: gene SETD1B; Complex; protein methyltransferase selectivity panel, enzyme activity relative to DMSO controls, single concentration in duplicate; conditions: Substrate:=Core Histone
# Sequence of SET1b Complex (Q15291 whole entry): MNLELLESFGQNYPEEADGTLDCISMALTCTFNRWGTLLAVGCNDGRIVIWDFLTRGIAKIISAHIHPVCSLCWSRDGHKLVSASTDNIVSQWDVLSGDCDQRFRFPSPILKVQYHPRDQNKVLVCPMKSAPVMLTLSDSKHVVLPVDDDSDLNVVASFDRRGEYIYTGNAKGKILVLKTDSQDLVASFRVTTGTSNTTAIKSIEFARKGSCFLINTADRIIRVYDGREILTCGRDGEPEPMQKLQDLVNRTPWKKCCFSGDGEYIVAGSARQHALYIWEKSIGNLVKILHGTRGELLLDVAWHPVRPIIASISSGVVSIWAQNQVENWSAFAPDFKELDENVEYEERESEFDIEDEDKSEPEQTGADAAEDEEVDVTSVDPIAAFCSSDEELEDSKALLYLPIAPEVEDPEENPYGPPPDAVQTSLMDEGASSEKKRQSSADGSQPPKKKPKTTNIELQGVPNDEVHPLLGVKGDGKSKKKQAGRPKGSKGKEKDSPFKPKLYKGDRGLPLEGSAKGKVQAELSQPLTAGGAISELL
# Sequence of SET1b Complex (Q9UPS6 whole entry): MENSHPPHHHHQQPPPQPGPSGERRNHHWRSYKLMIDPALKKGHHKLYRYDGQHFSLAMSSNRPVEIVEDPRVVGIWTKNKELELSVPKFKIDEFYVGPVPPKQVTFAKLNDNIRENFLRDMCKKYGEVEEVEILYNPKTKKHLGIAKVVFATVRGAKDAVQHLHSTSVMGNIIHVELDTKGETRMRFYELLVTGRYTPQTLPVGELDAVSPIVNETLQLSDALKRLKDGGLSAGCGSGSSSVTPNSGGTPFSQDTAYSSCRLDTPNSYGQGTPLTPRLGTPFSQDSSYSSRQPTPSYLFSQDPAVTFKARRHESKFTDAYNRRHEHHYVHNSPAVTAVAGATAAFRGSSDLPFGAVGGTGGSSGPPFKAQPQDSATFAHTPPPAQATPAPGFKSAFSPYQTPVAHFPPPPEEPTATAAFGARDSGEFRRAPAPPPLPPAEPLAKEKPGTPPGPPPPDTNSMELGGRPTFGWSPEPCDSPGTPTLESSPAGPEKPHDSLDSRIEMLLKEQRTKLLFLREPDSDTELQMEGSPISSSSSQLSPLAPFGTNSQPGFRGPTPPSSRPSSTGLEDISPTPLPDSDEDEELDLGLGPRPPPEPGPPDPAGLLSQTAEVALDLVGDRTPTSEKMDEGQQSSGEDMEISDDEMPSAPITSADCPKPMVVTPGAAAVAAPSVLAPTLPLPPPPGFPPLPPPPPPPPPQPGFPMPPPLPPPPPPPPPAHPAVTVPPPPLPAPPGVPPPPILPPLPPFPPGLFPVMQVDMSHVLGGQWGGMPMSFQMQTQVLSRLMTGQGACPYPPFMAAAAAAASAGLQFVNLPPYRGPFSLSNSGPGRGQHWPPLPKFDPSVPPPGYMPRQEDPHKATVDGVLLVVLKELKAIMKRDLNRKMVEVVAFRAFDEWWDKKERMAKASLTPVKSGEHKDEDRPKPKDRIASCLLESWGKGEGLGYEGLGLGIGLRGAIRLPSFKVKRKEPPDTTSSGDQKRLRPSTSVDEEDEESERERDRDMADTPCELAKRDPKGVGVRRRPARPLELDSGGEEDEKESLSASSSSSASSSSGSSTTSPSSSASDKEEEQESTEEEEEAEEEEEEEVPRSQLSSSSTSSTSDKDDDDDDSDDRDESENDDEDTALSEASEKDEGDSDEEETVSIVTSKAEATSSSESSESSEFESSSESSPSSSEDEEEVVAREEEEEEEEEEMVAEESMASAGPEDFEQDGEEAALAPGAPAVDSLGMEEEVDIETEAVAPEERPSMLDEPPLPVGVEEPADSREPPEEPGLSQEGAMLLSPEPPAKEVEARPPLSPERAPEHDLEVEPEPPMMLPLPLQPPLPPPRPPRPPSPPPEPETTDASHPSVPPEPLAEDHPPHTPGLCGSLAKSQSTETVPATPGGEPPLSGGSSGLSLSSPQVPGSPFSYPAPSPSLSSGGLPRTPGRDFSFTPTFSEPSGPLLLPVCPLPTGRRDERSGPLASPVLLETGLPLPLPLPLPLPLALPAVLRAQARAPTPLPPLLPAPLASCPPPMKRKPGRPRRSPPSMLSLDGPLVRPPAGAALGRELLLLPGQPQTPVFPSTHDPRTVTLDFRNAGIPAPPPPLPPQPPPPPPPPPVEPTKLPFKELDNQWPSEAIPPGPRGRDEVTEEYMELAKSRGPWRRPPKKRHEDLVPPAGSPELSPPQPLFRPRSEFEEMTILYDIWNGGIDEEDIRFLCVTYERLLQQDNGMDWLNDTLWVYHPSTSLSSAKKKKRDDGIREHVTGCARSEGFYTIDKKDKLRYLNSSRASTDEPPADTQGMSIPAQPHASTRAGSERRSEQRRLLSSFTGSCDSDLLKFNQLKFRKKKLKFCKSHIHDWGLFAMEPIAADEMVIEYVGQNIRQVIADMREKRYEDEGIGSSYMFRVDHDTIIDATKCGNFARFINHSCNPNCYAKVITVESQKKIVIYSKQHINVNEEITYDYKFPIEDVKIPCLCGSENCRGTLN
# Sequence of SET1b Complex (Q9C005 whole entry, further chain): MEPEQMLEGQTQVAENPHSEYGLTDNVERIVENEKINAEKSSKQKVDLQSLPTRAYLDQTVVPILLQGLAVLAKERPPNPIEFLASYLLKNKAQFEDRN
# Sequence of SET1b Complex (Q9UBL3 whole entry, further chain): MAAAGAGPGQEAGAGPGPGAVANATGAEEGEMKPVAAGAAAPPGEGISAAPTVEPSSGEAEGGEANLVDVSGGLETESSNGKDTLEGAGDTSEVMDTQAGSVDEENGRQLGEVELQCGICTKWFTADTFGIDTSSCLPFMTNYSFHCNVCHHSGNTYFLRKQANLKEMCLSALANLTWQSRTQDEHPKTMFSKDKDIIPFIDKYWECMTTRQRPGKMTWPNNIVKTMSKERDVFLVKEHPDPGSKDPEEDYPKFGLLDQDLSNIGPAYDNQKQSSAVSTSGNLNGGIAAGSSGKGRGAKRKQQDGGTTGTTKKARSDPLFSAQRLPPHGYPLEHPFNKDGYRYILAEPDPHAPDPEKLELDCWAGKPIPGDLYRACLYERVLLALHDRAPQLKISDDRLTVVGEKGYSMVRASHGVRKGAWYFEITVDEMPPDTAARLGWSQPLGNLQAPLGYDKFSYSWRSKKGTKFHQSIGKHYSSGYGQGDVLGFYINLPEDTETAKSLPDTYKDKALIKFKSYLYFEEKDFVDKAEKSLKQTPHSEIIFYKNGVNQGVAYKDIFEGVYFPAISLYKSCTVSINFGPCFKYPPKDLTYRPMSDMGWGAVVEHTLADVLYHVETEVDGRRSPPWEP
# Protocol: (§1) We next assessed selectivity of MS67 against 22 protein methyltransferases (table S2) and a broad panel of common drug targets including 45 kinases (table S3) and 44 G protein–coupled receptors (GPCR), ion channels, and transporters (table S4). […] We subsequently determined that MS67 had moderate binding affinity (Ki = 1.0 ± 0.8 μM) to Sigma 2 receptor (fig. S10).
# EZH2 Complex = EZH2 Complex (Homo sapiens, UniProt Q15910); design: Complex; protein methyltransferase selectivity panel, enzyme activity relative to DMSO controls, single concentration in duplicate; conditions: Substrate:=Core Histone
# Protocol: as §1
# EZH1 Complex = EZH1 Complex (Homo sapiens, UniProt Q92800); design: Complex; protein methyltransferase selectivity panel, enzyme activity relative to DMSO controls, single concentration in duplicate; conditions: Substrate:=Core Histone
# Protocol: as §1
# PRMT5/MEP50 Complex = PRMT5/MEP50 Complex (Homo sapiens, UniProt O14744); design: Complex; protein methyltransferase selectivity panel, enzyme activity relative to DMSO controls, single concentration in duplicate; conditions: Substrate:=Histone H2A
# Sequence of PRMT5/MEP50 Complex (O14744 whole entry): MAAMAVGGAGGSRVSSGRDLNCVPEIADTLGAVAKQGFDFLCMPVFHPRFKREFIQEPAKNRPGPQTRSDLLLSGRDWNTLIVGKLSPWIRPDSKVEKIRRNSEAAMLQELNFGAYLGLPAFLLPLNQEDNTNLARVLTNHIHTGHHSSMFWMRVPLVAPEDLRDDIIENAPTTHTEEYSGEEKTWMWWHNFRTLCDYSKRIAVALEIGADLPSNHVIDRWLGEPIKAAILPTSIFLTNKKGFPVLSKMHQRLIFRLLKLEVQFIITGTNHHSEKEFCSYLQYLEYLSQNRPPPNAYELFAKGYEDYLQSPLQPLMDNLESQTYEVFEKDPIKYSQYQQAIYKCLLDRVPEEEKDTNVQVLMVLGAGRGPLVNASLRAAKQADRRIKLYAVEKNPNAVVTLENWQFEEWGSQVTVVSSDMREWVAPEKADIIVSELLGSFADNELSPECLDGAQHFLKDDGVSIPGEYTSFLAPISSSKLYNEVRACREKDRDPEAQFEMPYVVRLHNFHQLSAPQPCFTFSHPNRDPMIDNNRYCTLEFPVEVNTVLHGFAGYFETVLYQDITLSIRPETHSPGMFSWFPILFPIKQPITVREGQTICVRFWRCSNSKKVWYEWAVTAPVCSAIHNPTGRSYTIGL
# Sequence of PRMT5/MEP50 Complex (Q9BQA1 whole entry partner): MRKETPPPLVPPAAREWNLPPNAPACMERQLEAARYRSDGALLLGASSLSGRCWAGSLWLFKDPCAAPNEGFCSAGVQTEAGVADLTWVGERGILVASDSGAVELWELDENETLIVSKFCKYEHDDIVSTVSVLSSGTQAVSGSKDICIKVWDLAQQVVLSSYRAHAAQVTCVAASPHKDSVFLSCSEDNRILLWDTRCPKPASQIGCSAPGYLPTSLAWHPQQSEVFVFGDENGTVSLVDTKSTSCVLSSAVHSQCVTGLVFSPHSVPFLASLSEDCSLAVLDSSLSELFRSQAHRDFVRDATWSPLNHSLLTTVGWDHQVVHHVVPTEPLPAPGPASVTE
# Protocol: as §1
# Alpha2C = molecular target: T1, Alpha2C (Homo sapiens, UniProt P18825); design: NIMH-PDSP radioligand binding assays, percent inhibition of radioligand binding, quadruplicate
# T1 construct: gene ADRA2C
# 5-HT1E = molecular target: T2, 5-HT1E (Homo sapiens, UniProt P28566); design: NIMH-PDSP radioligand binding assays, percent inhibition of radioligand binding, quadruplicate
# T2 construct: gene HTR1E
# Beta2 = molecular target: T3, Beta2 (Homo sapiens, UniProt P07550); design: NIMH-PDSP radioligand binding assays, percent inhibition of radioligand binding, quadruplicate
# T3 construct: gene ADRB2
# M5 = molecular target: T4, M5 (Homo sapiens, UniProt P08912); design: NIMH-PDSP radioligand binding assays, percent inhibition of radioligand binding, quadruplicate
# T4 construct: gene CHRM5
# NET = molecular target: T5, NET (Homo sapiens, UniProt P23975); design: NIMH-PDSP radioligand binding assays, percent inhibition of radioligand binding, quadruplicate
# T5 construct: gene SLC6A2
# SERT = molecular target: T6, SERT (Homo sapiens, UniProt P31645); design: NIMH-PDSP radioligand binding assays, percent inhibition of radioligand binding, quadruplicate
# T6 construct: gene SLC6A4
# 5-HT2C = molecular target: T7, 5-HT2C (Homo sapiens, UniProt P28335); design: NIMH-PDSP radioligand binding assays, percent inhibition of radioligand binding, quadruplicate
# T7 construct: gene HTR2C
# D4 = molecular target: T8, D4 (Homo sapiens, UniProt P21917); design: NIMH-PDSP radioligand binding assays, percent inhibition of radioligand binding, quadruplicate
# T8 construct: gene DRD4
# 5-HT1B = molecular target: T9, 5-HT1B (Homo sapiens, UniProt P28222); design: NIMH-PDSP radioligand binding assays, percent inhibition of radioligand binding, quadruplicate
# T9 construct: gene HTR1B
# 5-HT2B = molecular target: T10, 5-HT2B (Homo sapiens, UniProt P41595); design: NIMH-PDSP radioligand binding assays, percent inhibition of radioligand binding, quadruplicate
# T10 construct: gene HTR2B
# NEK2(h) = NEK2(h) (Homo sapiens, UniProt P51955); design: kinase selectivity panel, activity as per cent of control, single concentration in duplicate; conditions: read-out: % of control remaining
# Protocol: as §1
# PKA(h) = molecular target: T11, PKA(h) (Homo sapiens, UniProt P17612); design: kinase selectivity panel, activity as per cent of control, single concentration in duplicate; conditions: read-out: % of control remaining
# T11 construct: gene PRKACA
# Protocol: as §1
# KDR(h) = KDR(h) (Homo sapiens, UniProt P35968); design: kinase selectivity panel, activity as per cent of control, single concentration in duplicate; conditions: read-out: % of control remaining
# Protocol: as §1
# Mnk2(h) = molecular target: T12, Mnk2(h) (Homo sapiens, UniProt Q9HBH9); design: kinase selectivity panel, activity as per cent of control, single concentration in duplicate; conditions: read-out: % of control remaining
# T12 construct: gene MKNK2
# Protocol: as §1
# Abl(h) = molecular target: T13, Abl(h) (Homo sapiens, UniProt P00519); design: kinase selectivity panel, activity as per cent of control, single concentration in duplicate; conditions: read-out: % of control remaining
# T13 construct: gene ABL1
# Protocol: as §1
# IRAK4(h) = IRAK4(h) (Homo sapiens, UniProt Q9NWZ3); design: kinase selectivity panel, activity as per cent of control, single concentration in duplicate; conditions: read-out: % of control remaining
# Sequence of IRAK4(h) (Q9NWZ3 whole entry): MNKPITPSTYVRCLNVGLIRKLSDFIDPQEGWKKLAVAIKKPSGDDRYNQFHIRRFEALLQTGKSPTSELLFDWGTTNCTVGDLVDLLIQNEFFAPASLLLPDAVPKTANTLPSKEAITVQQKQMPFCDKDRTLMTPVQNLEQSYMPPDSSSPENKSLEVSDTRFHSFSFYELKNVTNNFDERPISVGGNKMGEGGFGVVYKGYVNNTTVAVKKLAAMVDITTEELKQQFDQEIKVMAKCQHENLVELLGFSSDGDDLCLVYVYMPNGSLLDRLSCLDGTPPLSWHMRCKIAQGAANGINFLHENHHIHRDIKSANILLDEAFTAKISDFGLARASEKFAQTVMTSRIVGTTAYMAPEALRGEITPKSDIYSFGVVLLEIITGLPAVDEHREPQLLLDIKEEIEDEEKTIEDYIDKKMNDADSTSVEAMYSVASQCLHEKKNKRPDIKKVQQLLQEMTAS
# Protocol: as §1
# SAPK2a(h) = molecular target: T14, SAPK2a(h) (Homo sapiens, UniProt Q16539); design: kinase selectivity panel, activity as per cent of control, single concentration in duplicate; conditions: read-out: % of control remaining
# T14 construct: gene MAPK14
# T14 sequence (Q16539 whole entry): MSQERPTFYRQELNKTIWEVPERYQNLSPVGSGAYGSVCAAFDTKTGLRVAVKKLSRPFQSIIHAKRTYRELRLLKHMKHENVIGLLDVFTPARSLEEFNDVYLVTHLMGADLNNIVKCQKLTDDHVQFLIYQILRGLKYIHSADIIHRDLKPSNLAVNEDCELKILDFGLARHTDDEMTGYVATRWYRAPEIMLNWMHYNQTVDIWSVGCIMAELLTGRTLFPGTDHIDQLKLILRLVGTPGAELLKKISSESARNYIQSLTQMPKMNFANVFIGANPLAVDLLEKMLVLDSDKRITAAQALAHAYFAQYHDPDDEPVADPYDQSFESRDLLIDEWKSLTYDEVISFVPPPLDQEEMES
# Protocol: as §1
# MAP4K4(h) = MAP4K4(h) (Homo sapiens, UniProt O95819); design: kinase selectivity panel, activity as per cent of control, single concentration in duplicate; conditions: read-out: % of control remaining
# Protocol: as §1
# [1] = read-out: Enzyme % Activity (relative to DMSO controls) / MS67 / 10 / Data 1:
# [2] = read-out: Enzyme % Activity (relative to DMSO controls) / MS67 / 10 / Data 2:
compound,measurement,setting,value
Cc1ncsc1-c1ccc([C@H](C)NC(=O)[C@@H]2C[C@@H](O)CN2C(=O)[C@@H](NC(=O)CNC(=O)c2ccc(F)c(-c3ccc(N4C[C@@H](C)N(C)[C@@H](C)C4)c(NC(=O)c4c[nH]c(=O)cc4C(F)(F)F)c3)c2)C(C)(C)C)cc1 [MS67],remaining activity at 10 µM,SET1b Complex; [1],94.9%
same,remaining activity at 10 µM,SET1b Complex; [2],92.1%
same,remaining activity at 10 µM,EZH2 Complex; [1],106%
same,remaining activity at 10 µM,EZH2 Complex; [2],101%
same,remaining activity at 10 µM,EZH1 Complex; [1],97.1%
same,remaining activity at 10 µM,EZH1 Complex; [2],103%
same,remaining activity at 10 µM,PRMT5/MEP50 Complex; [1],96.2%
same,remaining activity at 10 µM,PRMT5/MEP50 Complex; [2],97.3%
same,inhibition at 1 µM,Alpha2C,< 10%
same,inhibition at 1 µM,5-HT1E,< 10%
same,inhibition at 1 µM,Beta2,< 10%
same,inhibition at 1 µM,M5,< 10%
same,inhibition at 1 µM,NET,< 10%
same,inhibition at 1 µM,SERT,< 10%
same,inhibition at 1 µM,5-HT2C,< 10%
same,inhibition at 1 µM,D4,< 10%
same,inhibition at 1 µM,5-HT1B,< 10%
same,inhibition at 1 µM,5-HT2B,< 10%
same,remaining activity at 1 µM,NEK2(h),111%
same,remaining activity at 1 µM,PKA(h),107%
same,remaining activity at 1 µM,KDR(h),110%
same,remaining activity at 1 µM,Mnk2(h),125%
same,remaining activity at 1 µM,Abl(h),99%
same,remaining activity at 1 µM,IRAK4(h),109%
same,remaining activity at 1 µM,SAPK2a(h),99%
same,remaining activity at 1 µM,MAP4K4(h),100%
